In ChEMBL document CHEMBL2203237, “Synthesis of C3-arylated-3-deazauridine derivatives with potent anti-HSV-1 activities” (Bioorg Med Chem Lett, 2012):
pEC50: −log10 of the molar value. Calls of active or inactive are those of the source. The calls are words filed in the database; no cut-off is given here.

Key:
[1] = Cytotoxicity against african green monkey Vero cells after 3 days by neutral red dye method; format: cell-based; conditions: chlorocebus sabaeus
Human alphaherpesvirus 1 [2] = experiment: Antiviral activity against Herpes simplex virus type 1 infected in Vero cells at 0.001 ID50/cells assessed as protection against virus-induced cytopathic effect after 3 days by neutral red dye method; format: functional, organism-based; conditions: Human alphaherpesvirus 1, Vero, 72 h
Human alphaherpesvirus 1 [3] = experiment: Antiviral activity against Herpes simplex virus type 1 infected in Vero cells at 0.001 ID50/cells assessed as destruction of cell layer after 3 days by neutral red dye method; format: functional, organism-based
Human alphaherpesvirus 1 [4] = experiment: Antiviral activity against Herpes simplex virus type 1 infected in Vero cells at 0.001 ID50/cells assessed as change in cell morphology after 3 days by neutral red dye method; format: functional, organism-based
Human alphaherpesvirus 1 [5] = experiment: Antiviral activity against Herpes simplex virus type 1 infected in Vero cells at 0.01 ID50/cells assessed as protection against virus-induced cytopathic effect after 3 days by neutral red dye method; format: functional, organism-based; conditions: Human alphaherpesvirus 1, Vero, 72 h
Human alphaherpesvirus 1 [6] = experiment: Ratio of acyclovir EC50 to compound EC50 for Herpes simplex virus type 1; format: functional
Human alphaherpesvirus 1 [7] = experiment: Antiviral activity against Herpes simplex virus type 1 infected in Vero cells at 0.001 ID50/cells assessed as protection against virus-induced cytopathic effect at 200 ug/ml after 3 days by neutral red dye method relative to control; format: functional

Row | Compound | CC50 at 72 h [1] [µM] | pEC50 (Human alphaherpesvirus 1 [2]) | Activity (Human alphaherpesvirus 1 [3]) | Activity (Human alphaherpesvirus 1 [4]) | pEC50 (Human alphaherpesvirus 1 [5]) | ratio (Human alphaherpesvirus 1 [6]) | Activity (Human alphaherpesvirus 1 [7]) [%]
1 | Cc1ccc(-c2c(O)ccn([C@@H]3O[C@H](CO)[C@@H](O)[C@H]3O)c2=O)cc1 | > 400 | < 4.00 | Active | Active | – | – | –
2 | O=c1c(-c2ccccc2)c(O)ccn1[C@@H]1O[C@H](CO)[C@@H](O)[C@H]1O | > 400 | < 4.00 | Active | Active | – | – | –
3 | CCOc1ccc(-c2c(O)c(-c3ccccc3)cn([C@@H]3O[C@H](COC(C)=O)[C@@H](OC(C)=O)[C@H]3OC(C)=O)c2=O)cc1 | > 200 | – | – | – | < 4.00 | – | –
4 | O=c1c(-c2ccc(-c3ccccc3)cc2)c(O)ccn1[C@@H]1O[C@H](CO)[C@@H](O)[C@H]1O | > 200 | – | – | – | < 4.00 | – | –
5 | Nc1nc2c(ncn2COCCO)c(=O)[nH]1 [ACYCLOVIR] | > 200 | 6.12 | – | – | 4.66 | – | –
6 | COc1ccc(-c2c(O)ccn([C@@H]3O[C@H](CO)[C@@H](O)[C@H]3O)c2=O)cc1 | > 400 | 4.70 | Active | Active | < 4.00 | 3.8 | 82
7 | CC(=O)OC[C@H]1O[C@@H](n2ccc(O)c(-c3ccc(S(C)(=O)=O)cc3)c2=O)[C@H](OC(C)=O)[C@@H]1OC(C)=O | > 200 | – | – | – | < 4.00 | – | –
8 | CCOc1ccc(-c2c(O)ccn([C@@H]3O[C@H](COC(C)=O)[C@@H](OC(C)=O)[C@H]3OC(C)=O)c2=O)cc1 | > 200 | – | – | – | < 4.00 | – | –
9 | CC(=O)OC[C@H]1O[C@@H](n2ccc(O)c(-c3ccccc3)c2=O)[C@H](OC(C)=O)[C@@H]1OC(C)=O | > 400 | < 4.00 | Active | Active | – | – | –
10 | CC(=O)OC[C@H]1O[C@@H](n2ccc(O)c(-c3ccc(-c4ccccc4)cc3)c2=O)[C@H](OC(C)=O)[C@@H]1OC(C)=O | > 200 | – | – | – | 4.48 | 67 | –
11 | COc1c(C)cc(-c2c(O)ccn([C@@H]3O[C@H](COC(C)=O)[C@@H](OC(C)=O)[C@H]3OC(C)=O)c2=O)cc1C | > 200 | – | – | – | < 4.00 | – | –
12 | CC(=O)OC[C@H]1O[C@@H](n2c(=O)cc(O)c3ccccc32)[C@H](OC(C)=O)[C@@H]1OC(C)=O | > 200 | – | – | – | < 4.00 | – | –
13 | COc1cc(-c2c(O)ccn([C@@H]3O[C@H](COC(C)=O)[C@@H](OC(C)=O)[C@H]3OC(C)=O)c2=O)cc(OC)c1OC | > 200 | – | – | – | < 4.00 | – | –
14 | CC(=O)OC[C@H]1O[C@@H](n2ccc(O)c(-c3ccc4c(c3)OCO4)c2=O)[C@H](OC(C)=O)[C@@H]1OC(C)=O | > 400 | < 4.00 | Active | Active | – | – | –
15 | COc1ccc(-c2cn([C@@H]3O[C@H](CO)[C@@H](O)[C@H]3O)c(=O)cc2O)cc1 | > 200 | – | – | – | < 4.00 | – | –
16 | CC(=O)OC[C@H]1O[C@@H](n2ccc(O)c(-c3ccc(C)cc3)c2=O)[C@H](OC(C)=O)[C@@H]1OC(C)=O | > 400 | < 4.00 | Active | Active | – | – | –
17 | COc1ccc(-c2c(O)ccn([C@@H]3O[C@H](COC(C)=O)[C@@H](OC(C)=O)[C@H]3OC(C)=O)c2=O)cc1 | > 200 | 4.98 | Active | Active | < 4.00 | 7.2 | 85
18 | O=c1cc(O)c2ccccc2n1[C@@H]1O[C@H](CO)[C@@H](O)[C@H]1O | > 200 | – | – | – | < 4.00 | – | –

Row | Compound | CC50 at 72 h [1] [µM] | pEC50 (Human alphaherpesvirus 1 [2]) | Activity (Human alphaherpesvirus 1 [3]) | Activity (Human alphaherpesvirus 1 [4]) | pEC50 (Human alphaherpesvirus 1 [5]) | ratio (Human alphaherpesvirus 1 [6]) | Activity (Human alphaherpesvirus 1 [7]) [%]
19 | CCOc1ccc(-c2c(O)c(-c3ccccc3)cn([C@@H]3O[C@H](CO)[C@@H](O)[C@H]3O)c2=O)cc1 | > 200 | – | – | – | < 4.00 | – | –
20 | CC(=O)OC[C@H]1O[C@@H](n2ccc(O)c(-c3ccc(C4CCCCC4)cc3)c2=O)[C@H](OC(C)=O)[C@@H]1OC(C)=O | > 200 | – | – | – | 4.31 | 45 | –
21 | COc1ccc(-c2c(O)ccn([C@@H]3O[C@H](COC(C)=O)[C@@H](OC(C)=O)[C@H]3OC(C)=O)c2=O)cc1OC | > 200 | 4.44 | Active | Active | < 4.00 | 2.1 | 75
22 | CC(=O)OC[C@H]1O[C@@H](n2ccc(O)c(-c3ccc(C(C)(C)C)cc3)c2=O)[C@H](OC(C)=O)[C@@H]1OC(C)=O | > 200 | – | – | – | < 4.00 | – | –
23 | COc1ccc(-c2cn([C@@H]3O[C@H](COC(C)=O)[C@@H](OC(C)=O)[C@H]3OC(C)=O)c(=O)cc2O)cc1 | > 200 | – | – | – | < 4.00 | – | –
24 | CCOc1ccc(-c2c(O)ccn([C@@H]3O[C@H](CO)[C@@H](O)[C@H]3O)c2=O)cc1 | > 200 | – | – | – | < 4.00 | – | –
25 | O=c1c(-c2ccc3c(c2)OCO3)c(O)ccn1[C@@H]1O[C@H](CO)[C@@H](O)[C@H]1O | > 400 | < 4.00 | Active | Active | – | – | –
26 | CC(=O)OC[C@H]1O[C@@H](n2ccc(O)c(-c3ccc(OC(F)(F)F)cc3)c2=O)[C@H](OC(C)=O)[C@@H]1OC(C)=O | > 200 | – | – | – | < 4.00 | – | –
27 | CC(=O)OC[C@H]1O[C@@H](n2cc(-c3ccccc3)c(O)cc2=O)[C@H](OC(C)=O)[C@@H]1OC(C)=O | > 200 | – | – | – | < 4.00 | – | –
28 | O=c1cc(O)c(-c2ccccc2)cn1[C@@H]1O[C@H](CO)[C@@H](O)[C@H]1O | > 200 | – | – | – | < 4.00 | – | –
29 | COc1ccc(-c2c(O)ccn([C@@H]3O[C@H](CO)[C@@H](O)[C@H]3O)c2=O)cc1OC | > 400 | < 4.00 | Active | Active | – | – | –
30 | COc1c(C)cc(-c2c(O)ccn([C@@H]3O[C@H](CO)[C@@H](O)[C@H]3O)c2=O)cc1C | > 200 | – | – | – | < 4.00 | – | –
31 | O=c1c(-c2ccc(C3CCCCC3)cc2)c(O)ccn1[C@@H]1O[C@H](CO)[C@@H](O)[C@H]1O | > 200 | – | – | – | < 4.00 | – | –
32 | CC(=O)OC[C@H]1O[C@@H](n2ccc(O)c(CCc3ccccc3)c2=O)[C@H](OC(C)=O)[C@@H]1OC(C)=O | > 400 | < 4.00 | Active | Active | – | – | –
33 | COc1cc(-c2c(O)ccn([C@@H]3O[C@H](CO)[C@@H](O)[C@H]3O)c2=O)cc(OC)c1OC | > 200 | – | – | – | < 4.00 | – | –
34 | CC(C)(C)c1ccc(-c2c(O)ccn([C@@H]3O[C@H](CO)[C@@H](O)[C@H]3O)c2=O)cc1 | > 200 | – | – | – | < 4.00 | – | –
35 | O=c1c(CCc2ccccc2)c(O)ccn1[C@@H]1O[C@H](CO)[C@@H](O)[C@H]1O | > 400 | < 4.00 | Active | Active | – | – | –
